According to BindingDB's records for patent US11787810 (Merck Sharp & Dohme, 2023):

What follows are compounds tested against T1, Diacylglycerol O-acyltransferase 2 (Homo sapiens, UniProt Q96PD7) (assay: DGAT2 Enzymatic Activity Assay).
T1 sequence (Q96PD7 whole entry): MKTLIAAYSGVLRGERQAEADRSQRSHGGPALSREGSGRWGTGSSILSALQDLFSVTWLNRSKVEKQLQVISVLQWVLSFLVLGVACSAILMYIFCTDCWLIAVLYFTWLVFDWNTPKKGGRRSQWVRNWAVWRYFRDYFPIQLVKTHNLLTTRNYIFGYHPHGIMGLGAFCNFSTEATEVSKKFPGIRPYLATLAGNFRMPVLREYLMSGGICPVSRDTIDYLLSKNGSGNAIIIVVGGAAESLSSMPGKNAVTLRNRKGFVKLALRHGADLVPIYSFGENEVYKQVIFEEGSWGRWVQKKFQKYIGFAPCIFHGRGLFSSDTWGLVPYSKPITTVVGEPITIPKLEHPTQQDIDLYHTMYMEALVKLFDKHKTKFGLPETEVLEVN
Procedure: DGAT2 activity was determined by measuring the amount of enzymatic product 13C18-triolein (13C-1,2,3-Tri(cis-9-octadecenoyl)glycerol) using the membrane prep mentioned above. The assay was carried out in ABgene 384-well assay plates in a final volume of 25 μL at rt. The assay mixture contained the following: assay buffer (100 mM Tris Cl, pH 7.0, 20 mM MgCl2, 5% ethanol), 25 μM of diolein, 5 μM of 13C oleoyl-CoA and 8 ng/μL of DGAT2 membrane.

| Structure (SMILES) | IC50 |
| --- | --- |
| CC(C)n1nc(-c2cccc(OCC#N)c2)c2ncc(C(=O)NC3(C)CS(=O)(=O)C3)cc21 [US11787810, Example 103] | 142 nM |
| CC(=O)N1CC(n2nc(-c3cccc(OC(F)F)c3)c3ncc(C(=O)NC4(C)CS(=O)(=O)C4)cc32)C1 [US11787810, Example 135] | 7940 nM |
| CC(C)n1nc(-c2cccc(OC(F)F)c2)c2ncc(C(=O)NC3(C)CCS(=O)(=O)CC3)cc21 [US11787810, Example 32] | 4.3 nM |
